In patent publication US7915304B2, “Phenyl substituted maleimides as medicaments for blocking degenerative tissue damages by inhibiting MPT” (Congenia S.r.l., priority 2006, dated 2011):

Tests used:
[1] = system: permeability transition pore (PTP); test: Mitochondrial in vitro assay: calcium retention capacity (CRC) of isolated mouse liver mitochondria; type: biochemical; conditions: ratio of calcium required to open the PTP with vs without compound, 10 μM Ca2+ pulses at 1 min intervals, compound added 1 min before, 25° C.
Excerpt: The mitochondrial in vitro assay is based on the characteristics of mitochondrial organelles which allow the study of mitochondrial function in reductive sub-cellular in vitro systems. It is possible to investigate many mitochondrial processes in isolated mitochondrial suspension obtained from different tissues.
The ability of isolated mitochondria to uptake calcium from outside is a direct measure of mitochondrial integrity and functioning. Indeed MPT impairs the ability of mitochondria to upload calcium through specific channels that require an intact organelle structure. The assay takes advantage of this phenomenon to evaluate the ability of the invention compounds to interfere with MPT on isolated mitochondria.
Mitochondria were prepared from the livers of male 129 or C57/B6 mouse weighing 20-25 g. The animals were sacrificed by cervical dislocation. The livers were isolated and placed in ice-cold 0.25 M sucrose, 10 mM Tris-HCl, 0.1 mM ethylene-bis(oxoethylenenitrilo)tetraacetic acid (EGTA), pH 7.4 The livers were rinsed three-four times with ice-cold medium, minced with scissor and passed through a manual Potter homogenizer kept in an ice-water bath. The homogenate was diluted to 50 ml per liver, and unbroken cells and nuclei were sedimented by centrifugation at 900×g in a Beckman Avanti™ J-25 refrigerated centrifuge kept at 4° C. for 10 min. The supernatant was carefully decanted and centrifuged at 7000×g in the same centrifuge for 10 min. The supernatant was discarded and the mitochondrial pellets were carefully resuspended in ice-cold isolation medium and spun as above.
The resulting mitochondrial pellets were resuspended in a small amount of ice-cold isolation medium, and stored on ice. Mitochondria protein content was determined with the biuret assay.
The mitochondrial Ca^2+ retention capacity (CRC) is a sensitive measure of the propensity of mitochondria to open the PTP after Ca^2+ uptake. Since mitochondria are bidirectionally permeable to Ca^2+ owing to the presence of a Ca^2+ uniporter in their inner membrane, the mitochondrial membrane potential (Δψm) is responsible for the Ca^2+ accumulation in the mitochondrial matrix and consequent Ca^2+ gradient. Any drop in Δψm, such as depolarization caused by H^+ influx during PTP opening, is expected to result in a redistribution of Ca^2+ between the intra and extra-mitochondrial spaces, during which Ca^2+ uses all available routes through the mitochondrial membrane.
CRC of mitochondrial preparations was assessed fluorimetrically in the presence of the fluorescent Ca^2+ indicator Calcium Green-5N (excitation-emission: 505-535 nm) with a Perkin-Elmer LS 55 spectrofluorimeter equipped with a magnetic stirrer and thermostatic control set to 25° C. (Ichas, F.; Jouaville, L. S.; Mazat, J. P. Mitochondria are excitable organelles capable of generating and conveying electrical and calcium signal. Cell., 1997, 89, 1145-1153). Calcium Green-5N is a fluorometric probe that is not permeable to membranes and when added to a mitochondrial suspension is able to detect the presence of Ca^2+ in the extra-mitochondrial medium. Mitochondria were loaded with a train of 10 μM Ca^2+ pulses at 1 min intervals. Under these conditions mitochondria took up actively and retained Ca^2+ until a point at which mitochondria underwent a fast process of Ca^2+ release due to the opening of the PTP. The number of calcium pulses (final concentration of calcium) required to open the PTP is the mitochondrial CRC. This Ca^2+ loading protocol thus provides a convenient and sensitive assay for measuring PTP opening and it is used to assess the ability of the compounds of the invention to inhibit PTP opening. Compounds were added directly to the mitochondrial solution 1 min. prior to the start of calcium pulsing and the number of calcium pulses required to open the PTP was determined. […]

[2] = system: retinal neo-vascularisation; test: Mouse retinopathy of prematurity (ROP) model of ischemia-induced retinal neo-vascularisation; type: in vivo; conditions: ROP mice
Description: Retinal neo-vascularisation was assessed in a mouse retinopathy of prematurity (ROP) model of ischemia-induced retinal neo-vascularisation. In rodents, retinal vascularisation is generally completed by post-natal day 14 (P14). Oxygen treatment during the second week of life partially causes vaso-obliteration of immature retinal vessels around the optic disk and it blocks subsequent vascular development of the deep retinal layers. When oxygen treatment is stopped, the ischemia of the retina triggers abnormal vessel growth, i.e., retinal neovascularisation.
At postnatal day 7 (P7), newborn mice were exposed to 75% O2 for 5 days in an oxygen incubator. […] Oxygen concentration was monitored by an Oxygen Monitor (Miniox III; Catalyst Research, MD). […]
At day 12 (P12) animals were removed from the oxygen exposure chamber and injected intra-vitreously with a Hamilton syringe with compounds or vehicle solution. […] Flat-mounted retinas were photographed by fluorescence microscopy (Zeiss Axioplan Thornwood, N.Y.) and by computer-imaging (KS300, Kontron Electronik GmbH, Germany) retinal images captured. […]
Eyes from the same groups, at p17, were fixed and sections were prepared and stained with hematoxylin and eosin to quantify the amount of endothelial cells developed. […]

[3] = system: experimental autoimmune encephalomyelitis (EAE); test: Experimental autoimmune encephalomyelitis (EAE) model of multiple sclerosis; type: in vivo, mouse
Excerpt: Experimental autoimmune encephalomyelitis (EAE) is possibly the best animal model to study demyelinating diseases of the central nervous system (CNS) such as multiple sclerosis (MS) Since the first classical studies EAE has been an invaluable tool for dissecting mechanisms of the immune response against self-antigens within the CNS, as well as to test new therapies for the treatment of autoimmune diseases. Rodents are susceptible to EAE. Depending upon species, antigens and mode of sensitisation, EAE can have a monophasic acute course or a chronic relapsing, and even a primarily progressive course that mimics human MS. Acute models of EAE allow faster experimentation and observation, whereas chronic models allow wider observation, such as preventive versus therapeutic treatments.
Seven week-old C57 black/6N female mice were immunized with an emulsion of mycobacterium tubercolosis and the peptide spanning the sequence 35aa-55aa of the myelin oligodendrocyte glycoprotein (MOG) dissolved in phosphate buffer and Freud adjuvant. Mice were injected subcutaneously, in three different sites, with a total of 0.3 ml of emulsion. Immediately after the immunization mice were injected intravenously with 0.1 ml of pertussin toxin ([…]). […]
Starting from day 10 after the immunization mice were evaluated daily for weight loss and locomotive defects. […]

O=C1C=C(c2ccccc2)C(=O)N1c1cccc(C(F)(F)F)c1 [Example 31, 1-(3-trifluoromethylphenyl)-3-phenyl-pyrrole-2,5-dione]
CRC efficacy [1]: 2

Cc1cccc(N2C(=O)C=C(c3ccccc3)C2=O)c1 [Example 22, 1-(3-methylphenyl)-3-phenyl-pyrrole-2,5-dione]
CRC efficacy [1]: 2.57

Cc1cccc(N2C(=O)C=C(c3ccc(Cl)cc3)C2=O)c1 [Example 53, 1-(3-methylphenyl)-3-(4-chlorophenyl)-pyrrole-2,5-dione]
CRC efficacy [1]: 2.17

COc1ccc(Cl)cc1N1C(=O)C=C(c2ccccc2)C1=O [Example 58, 1-(5-chloro-2-methoxyphenyl)-3-phenyl-pyrrole-2,5-dione]
CRC efficacy [1]: 1.86

Cc1ccc(C2=CC(=O)N(c3cccc(Cl)c3)C2=O)cc1 [Example 57, 1-(3-chlorophenyl)-3-(4-methylphenyl)-pyrrole-2,5-dione]
CRC efficacy [1]: 2.66

O=C1C=C(c2ccccc2)C(=O)N1c1cccc(Cl)c1 [Example 63, 1-(3-chlorophenyl)-3-phenyl-pyrrole-2,5-dione]
neovascularization, fluorangiographic analysis ([2]; intravitreal injection at P12, approximately 1 or 2 or 4 microM in the vitreum, analysis at p17, vs DMSO vehicle): significant reduction
number of endothelial cells present in the eye (per section) ([2]; intravitreal injection at P12, eyes at p17, hematoxylin and eosin sections, FIG. 1): significantly reduces
CRC efficacy [1]: 2.5
treated mice developing inferior limb paresis after 20 days ([3]; 5 mg/kg intraperitoneally every day from day 4, approximately 30% of the untreated EAE mice developed it): no one
development of the disease (average clinical score, non parametric scale 0-5) ([3]; C57 black/6N female mice, MOG 35-55 immunization, 5 mg/kg intraperitoneally every day from day 4, FIG. 2): significantly prevented

O=C1C=C(c2cccc(F)c2)C(=O)N1c1ccc(F)c(Cl)c1 [Example 10, 1-(3-chloro-4-fluorophenyl)-3-(3-fluorophenyl)-pyrrole-2,5-dione]
CRC efficacy [1]: 2.27

O=C1C=C(c2cccc(F)c2)C(=O)N1c1cccc(Cl)c1 [Example 9, 1-(3-chlorophenyl)-3-(3-fluorophenyl)-pyrrole-2,5-dione]
CRC efficacy [1]: 2.75

O=C1C=C(c2ccccc2F)C(=O)N1c1cccc(Cl)c1 [Example 13, 1-(3-chlorophenyl)-3-(2-fluorophenyl)-pyrrole-2,5-dione]
CRC efficacy [1]: 2

O=C1C=C(c2ccc(O)cc2)C(=O)N1c1cccc(Cl)c1 [Example 36, 1-(3-chlorophenyl)-3-(4-hydroxyphenyl)-pyrrole-2,5-dione]
CRC efficacy [1]: 1.87

O=C1C=C(c2ccccc2)C(=O)N1c1ccc(F)c(Cl)c1 [Example 61, 1-(3-chloro-4-fluorophenyl)-3-phenyl-pyrrole-2,5-dione]
CRC efficacy [1]: 2.83

O=C1C=C(c2ccc(Cl)cc2)C(=O)N1c1cccc(Cl)c1 [Example 55, 1-(3-chlorophenyl)-3-(4-chlorophenyl)-pyrrole-2,5-dione]
CRC efficacy [1]: 2.33

COc1ccc(C2=CC(=O)N(c3cccc(Cl)c3)C2=O)cc1 [Example 48, 1-(3-chlorophenyl)-3-(4-methoxyphenyl)-pyrrole-2,5-dione]
CRC efficacy [1]: 2.11

O=C1C=C(c2ccccc2)C(=O)N1c1cccc(Br)c1 [Example 20, 1-(3-bromophenyl)-3-phenyl-pyrrole-2,5-dione]
CRC efficacy [1]: 2.33

O=C1C=C(c2ccccc2F)C(=O)N1c1ccc(F)c(Cl)c1 [Example 14, 1-(3-chloro-4-fluorophenyl)-3-(2-fluorophenyl)-pyrrole-2,5-dione]
CRC efficacy [1]: 2.22

O=C1C=C(c2ccc(F)cc2)C(=O)N1c1cccc(Cl)c1 [Example 2, 1-(3-chlorophenyl)-3-(4-fluorophenyl)-pyrrole-2,5-dione]
CRC efficacy [1]: 2.5
